Values quoted from earlier work, collected in patent US9326991B2, “Nucleotide prodrug compounds and use” (LIGAND PHARMACEUTICALS INC., priority 2012, dated 2016).

Conditions: human subjects

half-life: ~12 days
SMILES: NC(=O)c1ncn([C@@H]2O[C@H](CO)[C@@H](O)[C@H]2O)n1 [Ribavirin, 1-((2R,3R,4S,5R)-3,4-dihydroxy-5-(hydroxymethyl)oxolan-2-yl)-1H-1,2,4-triazole-3-carboxamide]
